The text below walks through data of patent US20110268757A1, “USE OF PHENOL-SOLUBLE MODULINS FOR VACCINE DEVELOPMENT” (INSTITUT PASTEUR, priority 2008, published 2011).

Assay [1] concerns IFN-γ producing cells in the presence of the peptide E7(49-57). As to the kind of experiment: ELISPOT of IFN-γ producing cells against peptide E7(49-57) after immunization. The class given is in vivo, C57BL6 mice. As to conditions: 5 nmoles peptide with 50 μg poly I:C, seven days after immunization. Here is the method: C57BL6 mice were intravenously immunized with 5 nmoles of the indicated peptides in combination with 50 μg of the TLR3 ligand poly I:C. For the analysis of the IFN-γ producing cells in the presence of the peptide E7(49-57) and induced in vivo by the immunizations, the animals were sacrificed 7 days after the immunizations and ELISPOT experiments were conducted using a BD-pharmingen kit (San Diego, Calif.) as indicated above and using peptide E7(49-57) as an antigen.

Assay [2] relates to TC-1 tumor cells (expressing the E7 protein of the HPV-16 virus). As to the kind of experiment: Treatment of mice carrying TC1 subcutaneous tumors. The class given is in vivo, C57B/6 mice. The note with it: TC1 tumors of 8 mm diameter, i.v. peptide plus 50 μg/ml poly I:C, second immunization seven days later. The method, then:
The C57B/6 mice were subcutaneously injected with 5×10^5 TC-1 tumor cells (expressing the E7 protein of the HPV-16 virus). After 25 days, when the tumor reaches a diameter of 8 mm, the mice are intravenously treated with PBS (B), with peptide E7(49-57) plus 50 μg/ml poly I:C(C), or with peptide αMod-E7(49-57) plus 50 μg/ml poly I:C (D). Seven days later, the mice received a second immunization of the same immunogens. The tumor size, presented as the average of two perpendicular diameters, was measured at regular intervals using a gauge. The number of tumor-free mice relative to the total number of animals per group is included for each treatment.

Turning to “MADVIAKIVEIVKGLIDQFTQKRAHYNIVTF [αMod-E7(49-57)]”, the “response against the cytotoxic peptide E7 (49-57) (ELISPOT, IFN-γ producing cells)” value in assay [1] is given as “induces a specific cytotoxic response”. For the same sequence, the “number of tumor-free (cured) mice relative to the total number of mice” value in assay [2] is given as 11 of 11.
